The structures appear in SMILES notation. Where “and” joins values, the source holds several entries; their conditions need not be identical. Equal entries are not always repeated. Inconclusive results and toxic doses are left out.

The test system of the experiment is P388 leukemia ip, CD2F1 mice, survival T/C. As to the kind of experiment: NCI In Vivo Anticancer Drug Screen. Data for tumor model P388 Leukemia (intraperitoneal) in CD2F1 (CDF1) mice. Particulars: endpoint: median survival time, higher = longer survival. The gist of the method:
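Mice carrying the transplanted tumor received test compound or vehicle. Survival was recorded in each group, and the value is the treated-group measurement divided by that of the vehicle-treated control group.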

Setting [1] is: dose: 50.0 mg/kg/injection, schedule: Q01DX005 (ip), vehicle: Klucel (hydroxypropylcellulose) (HPC).
Where [2] appears, read: dose: 100.0 mg/kg/injection, schedule: Q01DX005 (ip), vehicle: Klucel (hydroxypropylcellulose) (HPC).
Setting [3] is: dose: 25.0 mg/kg/injection, schedule: Q01DX009 (ip), vehicle: saline with Tween-80.
Where [4] appears, read: dose: 50.0 mg/kg/injection, schedule: Q01DX009 (ip), vehicle: saline with Tween-80.
[5] abbreviates: dose: 100.0 mg/kg/injection, schedule: Q01DX009 (ip), vehicle: saline with Tween-80.
Where [6] appears, read: dose: 200.0 mg/kg/injection, schedule: Q01DX009 (ip), vehicle: saline with Tween-80.
Where [7] appears, read: dose: 6.25 mg/kg/injection, schedule: Q01DX005 (ip), vehicle: saline with Tween-80.
Setting [8] is: dose: 12.5 mg/kg/injection, schedule: Q01DX005 (ip), vehicle: saline with Tween-80.
Setting [9] is: dose: 50.0 mg/kg/injection, schedule: Q01DX005 (ip), vehicle: saline with Tween-80.
The mark [10] stands for this setting: dose: 100.0 mg/kg/injection, schedule: Q04DX002 (ip), vehicle: saline with Tween-80.
Setting [11] is: dose: 200.0 mg/kg/injection, schedule: Q04DX002 (ip), vehicle: saline with Tween-80.

Turning to `Cn1c2cc3c(c(O)c2c(=O)c2cccnc21)C=CC(C)(C)O3`, the T/C was 104 % of control under setting [1]; 91 % of control under setting [2]; 93 % of control (dose: 200.0 mg/kg/injection, schedule: Q01DX005 (ip), vehicle: Klucel (hydroxypropylcellulose) (HPC)).
Consider `C=C(C)C(=NC(C)(C)C)N1CCCCC1`, for which the T/C was 100 % of control under setting [1] and 102 % of control under setting [2].
On to `O=C(O)/C=C\C(=O)OCc1ccc(Cl)cc1Cl`, for which the T/C was 86 % of control under setting [3] and 90 % of control under setting [4].
As for `O=C(c1ccccc1)N1c2ccccc2N(C(=O)c2ccccc2)C1c1nc2ccccc2n1C(=O)c1ccccc1`, the T/C is 109 % of control under setting [4], 100 % of control under setting [5] and 102 % of control under setting [6].
Regarding `CCOC(=O)c1cc2c(nc1C)-c1ccccc1OC2Nc1ccccc1` (stereo unspecified), the T/C is, setting by setting: (dose: 3.12 mg/kg/injection, schedule: Q01DX005 (ip), vehicle: saline with Tween-80) 98 % of control; under setting [7], 96 % of control; under setting [8], 96 % of control; under setting [9], 88 % of control; (dose: 100.0 mg/kg/injection, schedule: Q01DX001 (ip), vehicle: saline with Tween-80) 89 % of control.
Take `Cc1c2ccn(Cc3ccccc3)cc2c(C)c2c1nc1ccccc12`: the T/C was 121 % of control (dose: 19.25 mg/kg/injection, schedule: Q04DX002 (ip), vehicle: saline with Tween-80) and 113 % of control (dose: 38.5 mg/kg/injection, schedule: Q04DX002 (ip), vehicle: saline with Tween-80).
Consider `CC1=NC(=O)C(N=O)C(=O)N1` (stereo unspecified), for which the T/C runs as follows: under setting [10], 99 % of control; under setting [11], 97 % of control.
With `COc1cccc2c1C(=O)c1c(O)c3c(c(O)c1C2=O)C[C@@](O)(C(C)O)C[C@@H]3OC1CC(N(Cc2ccccc2)Cc2ccccc2)C(O)C(C)O1` (stereo partly specified), the T/C (dose: 4.7 mg/kg/injection, schedule: Q04DX003 (ip), vehicle: water) is 121 % of control; the T/C (dose: 6.25 mg/kg/injection, schedule: Q01DX009 (ip), vehicle: water) is 165 % of control; the T/C (dose: 12.5 mg/kg/injection, schedule: Q01DX009 (ip), vehicle: water) was 228 % of control and 233 % of control; the T/C (dose: 25.0 mg/kg/injection, schedule: Q01DX009 (ip), vehicle: water) was 97 % of control; the T/C (dose: 25.0 mg/kg/injection, schedule: Q04DX003 (ip), vehicle: water) was 194 % of control; the T/C (dose: 37.5 mg/kg/injection, schedule: Q04DX003 (ip), vehicle: water) is 106 % of control. For the same compound, the T/C is, setting by setting: (dose: 50.0 mg/kg/injection, schedule: Q04DX003 (ip), vehicle: water) 233 % of control; (dose: 75.0 mg/kg/injection, schedule: Q04DX003 (ip), vehicle: water) 116 % of control.
For `CCCCOP(O)(=S)OCCCC.[Er]`, the T/C under setting [10] was 96 % of control; the T/C under setting [11] is 101 % of control; the T/C (dose: 400.0 mg/kg/injection, schedule: Q04DX002 (ip), vehicle: saline with Tween-80) was 95 % of control.
For the compound `CCC1CN2CCc3cc(OC)c(OC)cc3C2CC12CO2` (stereo unspecified), the T/C was 114 % of control (dose: 12.5 mg/kg/injection, schedule: Q01DX009 (ip), vehicle: saline with Tween-80); 108 % of control under setting [3]; 96 % of control under setting [4].
Turning to `NC(=O)c1c(-c2ccccc2)nc2sccn12`, the T/C is 98 % of control (dose: 100.0 mg/kg/injection, schedule: Q01DX001 (ip), vehicle: Klucel (hydroxypropylcellulose) (HPC)); 90 % of control (dose: 200.0 mg/kg/injection, schedule: Q01DX001 (ip), vehicle: Klucel (hydroxypropylcellulose) (HPC)); 92 % of control (dose: 400.0 mg/kg/injection, schedule: Q01DX001 (ip), vehicle: Klucel (hydroxypropylcellulose) (HPC)).
Turning to `CC1=CC(=O)[C@@H](O)[C@]2(C)[C@H]3[C@@H](O)[C@H](O)[C@@](C)(O)[C@@H]4[C@@H](O)C(=O)O[C@H](C[C@@H]12)[C@]34C`, the T/C (dose: 1.0 mg/kg/injection, schedule: Q01DX009 (ip), vehicle: saline + alcohol) was 99 % of control; the T/C (dose: 2.0 mg/kg/injection, schedule: Q01DX009 (ip), vehicle: saline + alcohol) is 101 % of control; the T/C (dose: 4.0 mg/kg/injection, schedule: Q01DX009 (ip), vehicle: saline + alcohol) was 99 % of control; the T/C (dose: 8.0 mg/kg/injection, schedule: Q01DX009 (ip), vehicle: saline + alcohol) is 99 % of control.
Consider `Nc1ccc2c3c(cccc13)C(=O)N(CCCBr)C2=O`, for which the T/C reads like this: (dose: 60.0 mg/kg/injection, schedule: Q01DX005 (ip), vehicle: saline with Tween-80) 103 % of control; (dose: 120.0 mg/kg/injection, schedule: Q01DX005 (ip), vehicle: saline with Tween-80) 113 % of control; (dose: 240.0 mg/kg/injection, schedule: Q01DX005 (ip), vehicle: saline with Tween-80) 107 % of control.
Turning to `C[N+](C)(C)CCCSc1nc2ccccc2[nH]1`, the T/C (dose: 0.13 mg/kg/injection, schedule: Q01DX009 (ip), vehicle: saline) was 95 % of control; the T/C (dose: 0.25 mg/kg/injection, schedule: Q01DX009 (ip), vehicle: saline) was 103 % of control; the T/C (dose: 0.5 mg/kg/injection, schedule: Q01DX009 (ip), vehicle: saline) is 103 % of control; the T/C (dose: 1.0 mg/kg/injection, schedule: Q01DX009 (ip), vehicle: saline) was 104 % of control.
Consider `O=C(O)COc1cc(Cl)c(Cl)cc1Cl`, for which the T/C runs as follows: under setting [7], 98 % of control; under setting [8], 100 % of control; (dose: 25.0 mg/kg/injection, schedule: Q01DX005 (ip), vehicle: saline with Tween-80) 98 % of control; under setting [9], 98 % of control; (dose: 100.0 mg/kg/injection, schedule: Q01DX005 (ip), vehicle: saline with Tween-80) 106 % of control; (dose: 200.0 mg/kg/injection, schedule: Q01DX005 (ip), vehicle: saline with Tween-80) 97 % of control.
As to `CO[C@H]1/C=C/O[C@@]2(C)Oc3c(C)c(O)c4c(O)c(c(/C=N/N5CCNCC5)c(O)c4c3C2=O)NC(=O)/C(C)=C\C=C\[C@H](C)[C@H](O)[C@@H](C)[C@@H](O)[C@@H](C)C(OC(C)=O)[C@@H]1C` (stereo partly specified), the T/C is 95 % of control under setting [5]; 91 % of control (dose: 100.0 mg/kg/injection, schedule: Q04DX003 (ip), vehicle: saline with Tween-80); 104 % of control under setting [6]; 91 % of control (dose: 200.0 mg/kg/injection, schedule: Q04DX003 (ip), vehicle: saline with Tween-80); 100 % of control (dose: 400.0 mg/kg/injection, schedule: Q04DX003 (ip), vehicle: saline with Tween-80).
Regarding `Cc1c2oc3c(C)ccc(C(=O)NC(C(=O)NC(C(=O)O)C(C)C)C(C)O)c3nc-2c(C(=O)NC(C(=O)NC(C(=O)O)C(C)C)C(C)O)c(N)c1=O` (stereo unspecified), the T/C by setting is: (dose: 0.05 mg/kg/injection, schedule: Q01DX009 (ip), vehicle: water) 100 % of control; (dose: 0.1 mg/kg/injection, schedule: Q01DX009 (ip), vehicle: water) 97 % of control; (dose: 0.2 mg/kg/injection, schedule: Q01DX009 (ip), vehicle: water) 94 % of control; (dose: 0.4 mg/kg/injection, schedule: Q01DX009 (ip), vehicle: water) 99 % of control; (dose: 0.8 mg/kg/injection, schedule: Q01DX009 (ip), vehicle: water) 97 % of control; (dose: 1.6 mg/kg/injection, schedule: Q01DX009 (ip), vehicle: water) 102 % of control.
Regarding `C[CH2][Pb]([CH2]C)([CH2]C)[O]C(=O)COc1ccccc1`, the T/C runs as follows: (dose: 1.5 mg/kg/injection, schedule: Q04DX003 (ip), vehicle: Klucel (hydroxypropylcellulose) (HPC)) 100 % of control; (dose: 3.0 mg/kg/injection, schedule: Q04DX003 (ip), vehicle: Klucel (hydroxypropylcellulose) (HPC)) 100 % of control; (dose: 6.0 mg/kg/injection, schedule: Q04DX003 (ip), vehicle: Klucel (hydroxypropylcellulose) (HPC)) 106 % of control.
Take `O=C1C=C(c2ccccc2)Sc2ccccc2N1`: the T/C by setting is: (dose: 50.0 mg/kg/injection, schedule: Q01DX009 (ip), vehicle: Klucel (hydroxypropylcellulose) (HPC)) 95 % of control; (dose: 100.0 mg/kg/injection, schedule: Q01DX009 (ip), vehicle: Klucel (hydroxypropylcellulose) (HPC)) 88 % of control; (dose: 200.0 mg/kg/injection, schedule: Q01DX009 (ip), vehicle: Klucel (hydroxypropylcellulose) (HPC)) 87 % of control; (dose: 400.0 mg/kg/injection, schedule: Q01DX009 (ip), vehicle: Klucel (hydroxypropylcellulose) (HPC)) 94 % of control.

The record behind these values is PubChem BioAssay AID330 (DTP/NCI, 2004).
